Where a name gives a salt, the structure may show the parent alone.
Target: human active recombinant p38α-6His tagged (Homo sapiens, UniProt Q16539)
Test: P38 Alpha Enzyme Assay (AlphaScreen, biotinylated-ATF2 substrate);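 further: 0.5 nM final p38α, reaction started with ATP and run 45 min at 37 °C, phospho-ATF2 read by antibody-based AlphaScreen, background wells quenched with EDTA before ATP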
Format: biochemical
Details: p38 alpha enzyme inhibition; means of replicate determinations; 4 h pre-incubation at 37° C.; SD of assay 0.2-0.3 log units

Sequence of human active recombinant p38α-6His tagged (Q16539 whole entry): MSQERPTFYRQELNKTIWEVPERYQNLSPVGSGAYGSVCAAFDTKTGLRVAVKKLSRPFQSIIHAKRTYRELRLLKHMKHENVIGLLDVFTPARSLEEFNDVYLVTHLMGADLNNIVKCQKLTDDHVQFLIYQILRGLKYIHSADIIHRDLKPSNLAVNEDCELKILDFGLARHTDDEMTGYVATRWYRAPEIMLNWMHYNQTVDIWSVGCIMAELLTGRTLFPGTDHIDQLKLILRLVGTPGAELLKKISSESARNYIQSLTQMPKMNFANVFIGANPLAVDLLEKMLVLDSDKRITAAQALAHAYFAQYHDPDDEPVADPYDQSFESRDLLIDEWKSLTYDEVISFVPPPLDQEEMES

Row | Structure (SMILES) | pIC50
1 | Cc1ccc(C(=O)NC2CC2)cc1-n1ccnc(NC[C@H](C)c2ccccc2)c1=O [Example 57, N-Cyclopropyl-4-methyl-3-[2-oxo-3-[[(2R)-2-phenylpropyl]amino]-1(2H)-pyrazinyl]-benzamide] | 7.1
2 | CNCCOc1ccccc1C1(Nc2nccn(-c3cc(C(=O)NC4CC4)ccc3C)c2=O)CCC1 [Example 268, N-Cyclopropyl-4-methyl-3-[3-[[1-[2-[2-(methylamino)ethoxy]phenyl]cyclobutyl]amino]-2-oxo-1(2H)-pyrazinyl]-benzamide] | 10
3 | Cc1cc(C)cc(CNc2nccn(-c3cc(C(=O)NC4CC4)ccc3C)c2=O)c1 [Example 95, N-Cyclopropyl-3-[3-[[(3,5-dimethylphenyl)methyl]amino]-2-oxo-1(2H)-pyrazinyl]-4-methyl-benzamide] | 7.7
4 | Cc1ccc(C(=O)NC2CC2)cc1-n1ccnc(NCC2CCOCC2)c1=O [Example 90, N-Cyclopropyl-4-methyl-3-[2-oxo-3-[[(tetrahydro-2H-pyran-4-yl)methyl]amino]-1(2H)-pyrazinyl]-benzamide] | 6.4
5 | Cc1c(F)cc(C(=O)NC2CC2)cc1-n1ccnc(NC(C)(C)c2ccccc2SCCN)c1=O [Example 321, 3-{3-[(1-{2-[(2-Aminoethyl)sulfanyl]phenyl}-1-methylethyl)amino]-2-oxopyrazin-1(2H)-yl}-N-cyclopropyl-5-fluoro-4-methylbenzamide] | 9.7
6 | Cc1ccc(C(=O)NC2CC2)cc1-n1ccnc(NCc2ccc(CN)cc2)c1=O [Example 125, 3-[3-[[[4-(Aminomethyl)phenyl]methyl]amino]-2-oxo-1(2H)-pyrazinyl]-N-cyclopropyl-4-methyl-benzamide] | 6.2
7 | CONC(=O)c1ccc(C)c(-n2ccnc(N3CCNC(c4ccccc4)C3)c2=O)c1 (stereo not shown) [Example 126, N-Methoxy-4-methyl-3-[2-oxo-3-(3-phenyl-1-piperazinyl)-1(2H)-pyrazinyl]-benzamide] | 8.1
8 | Cc1ccc(C(=O)NC2CC2)cc1-n1ccnc(NC2(c3cccc(F)c3OCCNC[C@@H](C)O)CC2)c1=O [Example 283, N-Cyclopropyl-3-[3-({1-[3-fluoro-2-(2-{[(2R)-2-hydroxypropyl]amino}ethoxy)phenyl]cyclopropyl}amino)-2-oxopyrazin-1(2H)-yl]-4-methylbenzamide] | 9.7
9 | CNCCOc1ccc(F)cc1C1(Nc2nccn(-c3cc(C(=O)NC4CC4)cc(F)c3C)c2=O)CC1 [Example 281, N-Cyclopropyl-3-fluoro-5-{3-[(1-{5-fluoro-2-[2-(methylamino)ethoxy]phenyl}cyclopropyl)amino]-2-oxopyrazin-1(2H)-yl}-4-methylbenzamide] | 10.4
10 | Cc1ccc(C(=O)NC2CC2)cc1-n1ccnc(NC2(c3ccccc3OC[C@H](O)CNCCO)CC2)c1=O [Example 299, N-Cyclopropyl-3-[3-({1-[2-({(2R)-2-hydroxy-3-[(2-hydroxyethyl)amino]propyl}oxy)phenyl]cyclopropyl}amino)-2-oxopyrazin-1(2H)-yl]-4-methylbenzamide] | 10
11 | Cc1ccc(C(=O)NC2CC2)cc1-n1ccnc(NC2(c3cc(F)ccc3OCCNCCO)CC2)c1=O [Example 279, N-Cyclopropyl-3-[3-[[1-[5-fluoro-2-[2-[(2-hydroxyethyl)amino]ethoxy]phenyl]cyclopropyl]amino]-2-oxo-1(2H)-pyrazinyl]-4-methyl-benzamide] | 10.1
12 | Cc1ccc(C(=O)NC2CC2)cc1-n1ccnc(NC2(c3ccccc3OCCNCC(F)(F)F)CC2)c1=O [Example 240, N-Cyclopropyl-4-methyl-3-[2-oxo-3-[[1-[2-[2-[(2,2,2-trifluoroethyl)amino]ethoxy]phenyl]cyclopropyl]amino]-1(2H)-pyrazinyl]-benzamide] | 8.8

Further lines, results first:

Row | pIC50 | Structure (SMILES)
13 | 10 | Cc1ccc(C(=O)NC2CC2)cc1-n1ccnc(NC2(c3ccccc3OCCNC[C@H](C)O)CC2)c1=O [Example 230, N-Cyclopropyl-3-[3-[[1-[2-[2-[[(2S)-2-hydroxypropyl]amino]ethoxy]phenyl]cyclopropyl]amino]-2-oxo-1(2H)-pyrazinyl]-4-methyl-benzamide]
14 | 8.6 | Cc1ccccc1[C@H](Nc1nccn(-c2cc(C(=O)NC3CC3)ccc2C)c1=O)[C@@H](C)CN1CCCC1 [Example 275, N-Cyclopropyl-3-[3-[[(1R,2S)-1-(2-methylphenyl)-2-methyl-3-(1-pyrrolidinyl)propyl]amino]-2-oxo-1(2H)-pyrazinyl]-4-methyl-benzamide]
15 | 9.2 | Cc1ccc(C(=O)NC2CC2)cc1-n1ccnc(N[C@@H](c2ccccc2)[C@@H](C)CN2CCC3(CC2)CNC3)c1=O [Example 188, N-Cyclopropyl-3-[3-[[(1R,2S)-3-(2,7-diazaspiro[3.5]non-7-yl)-2-methyl-1-phenylpropyl]amino]-2-oxo-1(2H)-pyrazinyl]-4-methyl-benzamide]
16 | 9 | COC[C@H]1CCCN1C[C@H](C)[C@@H](Nc1nccn(-c2cc(C(=O)NC3CC3)ccc2C)c1=O)c1ccccc1 [Example 147, N-Cyclopropyl-3-[3-[[(1R,2S)-3-[(2R)-2-(methoxymethyl)-1-pyrrolidinyl]-2-methyl-1-phenylpropyl]amino]-2-oxo-1(2H)-pyrazinyl]-4-methyl-benzamide]
17 | 9 | Cc1ccc(C(=O)NC2CC2)cc1-n1ccnc(N[C@@H](c2ccccc2)[C@@H](C)CN2CCC[C@@H](O)C2)c1=O [Example 186, N-Cyclopropyl-3-[3-[[(1R,2S)-3-[(3R)-3-hydroxy-1-piperidinyl]-2-methyl-1-phenylpropyl]amino]-2-oxo-1(2H)-pyrazinyl]-4-methyl-benzamide]
18 | 7.9 | Cc1ccc(C(=O)NC2CC2)cc1-n1ccnc(N[C@@H](c2cccc3ccccc23)[C@@H](C)CN2CCCC2)c1=O [Example 144, N-Cyclopropyl-4-methyl-3-[3-[[(1R,2S)-2-methyl-1-(1-naphthalenyl)-3-(1-pyrrolidinyl)propyl]amino]-2-oxo-1(2H)-pyrazinyl]-benzamide]
19 | 9.4 | CONC(=O)c1ccc(C)c(-n2ccnc(N[C@@H](c3ccccc3)[C@@H](C)CO)c2=O)c1 [Example 162, 3-[3-[[(1R,2R)-3-Hydroxy-2-methyl-1-phenylpropyl]amino]-2-oxo-1(2H)-pyrazinyl]-N-methoxy-4-methyl-benzamide, trifluoroacetate]
20 | 9 | CCONC(=O)c1ccc(C)c(-n2ccnc(NC(C)(C)c3ccccc3OCCNC)c2=O)c1 [Example 222, N-Ethoxy-4-methyl-3-[3-[[1-methyl-1-[2-[2-(methylamino)ethoxy]phenyl]ethyl]amino]-2-oxo-1(2H)-pyrazinyl]-benzamide]
21 | 8.5 | CCNCCOc1ccccc1C(C)(C)Nc1nccn(-c2cc(C(=O)NC3CC3)ccc2CC)c1=O [Example 290, N-Cyclopropyl-4-ethyl-3-{3-[(1-{2-[2-(ethylamino)ethoxy]phenyl}-1-methylethyl)amino]-2-oxopyrazin-1(2H)-yl}benzamide]
22 | 8.8 | Cc1ccc(C(=O)NC2CC2)cc1-n1ccnc(N[C@@H](c2ccccc2)[C@@H](C)CN2CCCC2)c1=O [Example 142, N-Cyclopropyl-4-methyl-3-[3-[[(1R,2S)-2-methyl-1-phenyl-3-(1-pyrrolidinyl)propyl]amino]-2-oxo-1(2H)-pyrazinyl]-benzamide]

Reference: patent publication US20120214822A1 (ASTRAZENECA AB, priority 2007, published 2012)
